EC50 data for two compounds are collected here from PubChem BioAssay AID1794831.

In this experiment the target is Solute carrier family 2, facilitated glucose transporter member 9 (Homo sapiens) (UniProt Q9NRM0). The experiment is described as follows: SLC2A9 substrate-evoked membrane potential change, dose response, cell-based, membrane potential dye, HEK-293, SLC2A9 overexpression (AID 1794831). Conditions: HEK-293 SLC2A9 OE, FLIPR membrane potential dye.
Solute carrier family 2, facilitated glucose transporter member 9 (Homo sapiens), sequence (Q9NRM0 whole entry, looked up): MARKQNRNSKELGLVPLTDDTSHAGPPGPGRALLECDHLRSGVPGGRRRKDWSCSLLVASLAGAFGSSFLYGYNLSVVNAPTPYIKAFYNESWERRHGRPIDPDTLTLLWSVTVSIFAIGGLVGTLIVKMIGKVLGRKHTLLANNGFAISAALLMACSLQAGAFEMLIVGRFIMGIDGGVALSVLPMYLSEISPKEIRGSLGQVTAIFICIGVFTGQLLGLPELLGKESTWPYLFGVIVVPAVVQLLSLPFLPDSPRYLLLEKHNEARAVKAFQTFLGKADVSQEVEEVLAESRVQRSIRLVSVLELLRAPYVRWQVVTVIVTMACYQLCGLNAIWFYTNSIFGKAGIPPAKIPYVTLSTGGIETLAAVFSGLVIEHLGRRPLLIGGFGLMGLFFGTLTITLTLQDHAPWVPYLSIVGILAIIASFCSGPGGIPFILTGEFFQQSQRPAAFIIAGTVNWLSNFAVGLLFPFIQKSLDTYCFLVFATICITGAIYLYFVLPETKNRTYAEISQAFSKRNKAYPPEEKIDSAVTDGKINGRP

As to `O=c1[nH]c(=O)c2[nH]c(=O)[nH]c2[nH]1`, the EC50 is 300 µM. For `O=C(O)c1cc(=O)[nH]c(=O)[nH]1` the value was 1000 µM.

In general, EC50 refers to the concentration giving half of the maximal effect.
